In patent US12065436B2, “Cardiac sarcomere inhibitors” (Cytokinetics, Inc., priority 2018, dated 2024):

Biological target: bovine cardiac myofibrils (full-length cardiac myosin ATPase in the native sarcomere) (Bos taurus (Bovine), UniProt Q9BE39)
Assay: Skinned bovine cardiac myofibril ATPase assay (PK/LDH-coupled)
Type: biochemical
Details: Ca2+ activating to 75% of maximal rate; for CDMF75 IC15: concentration giving 15% inhibition; for IC50: read-out: CDMF75 IC50
In short: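 Inhibition of steady-state ATPase read at 340 nm through a PK/LDH-coupled NADH system (0.5 mM NADH, 1.5 mM PEP). Detergent-skinned bovine cardiac myofibrils, 1 mg/mL, were tested at pH 6.8 in PIPES/MgCl2 with 50 μM ATP and calcium adjusted to give pCa50 or pCa75 activation.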

Sequence of bovine cardiac myofibrils (full-length cardiac myosin ATPase in the native sarcomere) (Q9BE39 whole entry): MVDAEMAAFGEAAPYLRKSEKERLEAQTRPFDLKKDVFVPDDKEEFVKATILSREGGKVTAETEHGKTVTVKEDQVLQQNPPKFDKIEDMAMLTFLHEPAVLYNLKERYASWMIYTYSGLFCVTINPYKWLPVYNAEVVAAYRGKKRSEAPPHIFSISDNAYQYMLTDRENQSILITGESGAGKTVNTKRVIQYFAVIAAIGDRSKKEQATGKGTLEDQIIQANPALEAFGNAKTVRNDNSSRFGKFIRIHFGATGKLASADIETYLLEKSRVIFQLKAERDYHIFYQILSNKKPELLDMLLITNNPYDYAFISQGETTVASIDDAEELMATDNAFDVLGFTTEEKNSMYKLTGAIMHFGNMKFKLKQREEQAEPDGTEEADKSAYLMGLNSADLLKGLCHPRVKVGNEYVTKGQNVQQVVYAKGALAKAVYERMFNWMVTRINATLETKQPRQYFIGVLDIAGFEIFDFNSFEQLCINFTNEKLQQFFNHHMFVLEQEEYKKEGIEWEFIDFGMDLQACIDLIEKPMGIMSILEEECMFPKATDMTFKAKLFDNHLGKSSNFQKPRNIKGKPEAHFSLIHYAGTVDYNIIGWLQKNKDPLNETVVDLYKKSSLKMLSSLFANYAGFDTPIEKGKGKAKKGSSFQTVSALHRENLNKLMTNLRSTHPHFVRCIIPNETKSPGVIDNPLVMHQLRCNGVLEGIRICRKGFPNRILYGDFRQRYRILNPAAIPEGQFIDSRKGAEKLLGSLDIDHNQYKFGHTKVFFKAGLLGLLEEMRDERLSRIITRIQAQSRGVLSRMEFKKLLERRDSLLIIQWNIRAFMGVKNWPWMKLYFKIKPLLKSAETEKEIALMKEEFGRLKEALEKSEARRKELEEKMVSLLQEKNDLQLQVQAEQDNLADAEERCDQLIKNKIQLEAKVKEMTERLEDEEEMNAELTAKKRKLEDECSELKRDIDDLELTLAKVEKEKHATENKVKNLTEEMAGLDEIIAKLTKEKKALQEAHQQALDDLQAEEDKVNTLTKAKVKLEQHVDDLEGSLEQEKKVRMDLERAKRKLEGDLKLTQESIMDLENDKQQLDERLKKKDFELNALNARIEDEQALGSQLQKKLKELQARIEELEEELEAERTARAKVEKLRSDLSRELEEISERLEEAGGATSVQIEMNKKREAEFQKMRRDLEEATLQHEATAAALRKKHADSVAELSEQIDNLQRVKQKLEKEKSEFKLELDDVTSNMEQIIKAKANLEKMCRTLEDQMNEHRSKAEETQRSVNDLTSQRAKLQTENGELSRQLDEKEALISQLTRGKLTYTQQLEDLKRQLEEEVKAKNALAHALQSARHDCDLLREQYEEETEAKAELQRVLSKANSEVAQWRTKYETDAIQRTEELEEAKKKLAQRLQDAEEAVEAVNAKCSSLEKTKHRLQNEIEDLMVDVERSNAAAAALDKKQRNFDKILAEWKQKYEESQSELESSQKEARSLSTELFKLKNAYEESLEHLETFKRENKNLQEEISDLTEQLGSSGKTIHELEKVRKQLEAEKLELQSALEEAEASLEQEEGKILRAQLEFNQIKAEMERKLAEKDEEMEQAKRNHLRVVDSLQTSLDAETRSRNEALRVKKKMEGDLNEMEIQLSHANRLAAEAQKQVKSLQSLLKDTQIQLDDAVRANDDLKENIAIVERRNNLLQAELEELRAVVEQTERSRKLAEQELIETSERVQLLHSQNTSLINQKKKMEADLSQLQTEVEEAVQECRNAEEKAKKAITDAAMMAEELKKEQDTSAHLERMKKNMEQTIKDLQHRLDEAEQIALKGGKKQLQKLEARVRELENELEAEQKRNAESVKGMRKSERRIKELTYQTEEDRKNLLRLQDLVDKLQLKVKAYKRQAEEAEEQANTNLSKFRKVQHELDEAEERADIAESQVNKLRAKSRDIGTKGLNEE
Sequence of bovine cardiac myofibrils (full-length cardiac myosin ATPase in the native sarcomere) (P85100 whole entry partner): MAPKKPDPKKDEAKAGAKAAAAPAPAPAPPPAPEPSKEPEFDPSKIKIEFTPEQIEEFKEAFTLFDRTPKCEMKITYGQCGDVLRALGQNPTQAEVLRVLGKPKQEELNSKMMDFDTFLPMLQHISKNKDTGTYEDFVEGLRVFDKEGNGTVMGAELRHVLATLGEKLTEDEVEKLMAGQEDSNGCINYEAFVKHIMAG
Sequence of bovine cardiac myofibrils (full-length cardiac myosin ATPase in the native sarcomere) (Q3SZE5 whole entry partner): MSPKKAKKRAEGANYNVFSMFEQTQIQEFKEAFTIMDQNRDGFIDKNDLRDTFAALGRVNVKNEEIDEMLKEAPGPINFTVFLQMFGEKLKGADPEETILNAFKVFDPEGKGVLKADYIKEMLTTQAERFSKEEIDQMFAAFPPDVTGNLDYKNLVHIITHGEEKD

`CCc1nc(-c2ccc3c(c2)CC[C@H]3NC(=O)c2ccc(=O)[nH]c2)no1` [Compound 603, (R)-N-(5-(5-ethyl-1,2,4-oxadiazol-3-yl)-2,3-dihydro-1H-inden-1-yl)-6-oxo-1,6-dihydropyridine-3-carboxamide] was tested, and the “CDMF75 IC15” value was 300 nM and the IC50 was 1000 nM.

For `CCc1nc(-c2ccc3c(c2)CC[C@H]3NC(=O)c2ccc(=O)[nH]c2)no1` [Compound 604, (R)-N-(5-(5-ethyl-1,2,4-oxadiazol-3-yl)-2,3-dihydro-1H-inden-1-yl)-6-oxo-1,6-dihydropyridine-3-carboxamide], the “CDMF75 IC15” value was 300 nM and the IC50 was 900 nM.

With `CCc1nc(-c2ccc3c(c2)CC[C@H]3NC(=O)c2ccc(=O)n(CCO)c2)no1` [Compound 605, (R)-N-(5-(5-ethyl-1,2,4-oxadiazol-3-yl)-2,3-dihydro-1H-inden-1-yl)-1-(2-hydroxyethyl)-6-oxo-1,6-dihydropyridine-3-carboxamide] the “CDMF75 IC15” value was 800 nM and the IC50 was 3400 nM.

In the case of `CCc1nc(-c2ccc3c(c2)CC[C@H]3NC(=O)c2ccc(=O)n(CCOC)c2)no1` [Compound 606, (R)-N-(5-(5-ethyl-1,2,4-oxadiazol-3-yl)-2,3-dihydro-1H-inden-1-yl)-1-(2-methoxyethyl)-6-oxo-1,6-dihydropyridine-3-carboxamide], the “CDMF75 IC15” value is reported as 4600 nM and the IC50 is reported as 22600 nM.

For `CCc1nc(-c2ccc3c(c2)CC[C@H]3NC(=O)c2ccnn2CCO)no1` [Compound 607, (R)-N-(5-(5-ethyl-1,2,4-oxadiazol-3-yl)-2,3-dihydro-1H-inden-1-yl)-1-(2-hydroxyethyl)-1H-pyrazole-5-carboxamide], the “CDMF75 IC15” value was 2900 nM and the IC50 was 15400 nM.

With `CCc1nc(-c2ccc3c(c2)CC[C@H]3NC(=O)c2ccn(CCO)n2)no1` [Compound 608, (R)-N-(5-(5-ethyl-1,2,4-oxadiazol-3-yl)-2,3-dihydro-1H-inden-1-yl)-1-(2-hydroxyethyl)-1H-pyrazole-3-carboxamide] the “CDMF75 IC15” value was 1200 nM and the IC50 was 4600 nM.

With `CCc1nc(-c2cc(O)c3c(c2)CC[C@H]3NC(=O)c2cnn(C)c2)no1` [Compound 609, N-[(1R)-5-(5-ethyl-1,2,4-oxadiazol-3-yl)-7-hydroxy-2,3-dihydro-1H-inden-1-yl]-1-methyl-1H-pyrazole-4-carboxamide] the “CDMF75 IC15” value was 300 nM and the IC50 was 900 nM.

`CCc1nc(-c2ccc3c(c2)CC[C@H]3NC(=O)c2ccnc(C(C)(C)O)c2)no1` [Compound 610, (R)-N-(5-(5-ethyl-1,2,4-oxadiazol-3-yl)-2,3-dihydro-1H-inden-1-yl)-2-(2-hydroxypropan-2-yl)isonicotinamide] was tested, and the “CDMF75 IC15” value was 2000 nM and the IC50 was 8600 nM.

`CCc1nc(-c2ccc3c(c2)CC[C@H]3NC(=O)c2cnn(CCCO)c2C)no1` [Compound 611, (R)-N-(5-(5-ethyl-1,2,4-oxadiazol-3-yl)-2,3-dihydro-1H-inden-1-yl)-1-(3-hydroxypropyl)-5-methyl-1H-pyrazole-4-carboxamide] was tested, and the “CDMF75 IC15” value was 700 nM and the IC50 was 2500 nM.

For `CCc1nc(-c2ccc3c(c2)CC[C@H]3NC(=O)c2cn(CCCO)nc2C)no1` [Compound 612, (R)-N-(5-(5-ethyl-1,2,4-oxadiazol-3-yl)-2,3-dihydro-1H-inden-1-yl)-1-(3-hydroxypropyl)-3-methyl-1H-pyrazole-4-carboxamide], the “CDMF75 IC15” value was 700 nM and the IC50 was 2100 nM.

For `CCc1nc(-c2ccc3c(c2)CC[C@H]3NC(=O)c2cnc(CO)n2C)no1` [Compound 613, (R)-N-(5-(5-ethyl-1,2,4-oxadiazol-3-yl)-2,3-dihydro-1H-inden-1-yl)-2-(hydroxymethyl)-1-methyl-1H-imidazole-5-carboxamide], the “CDMF75 IC15” value was 400 nM and the IC50 was 1400 nM.

`CCc1nc(-c2ccc3c(c2)CC[C@H]3NC(=O)c2ccc(=O)n(CC(=O)O)c2)no1` [Compound 614, (R)-2-(5-((5-(5-ethyl-1,2,4-oxadiazol-3-yl)-2,3-dihydro-1H-inden-1-yl)carbamoyl)-2-oxopyridin-1(2H)-yl)acetic acid] was tested, and the “CDMF75 IC15” value was 3400 nM and the IC50 was 14700 nM.

For `CCc1nc(-c2ccc3c(c2)CC[C@H]3NC(=O)c2cnon2)no1` [Compound 615, (R)-N-(5-(5-ethyl-1,2,4-oxadiazol-3-yl)-2,3-dihydro-1H-inden-1-yl)-1,2,5-oxadiazole-3-carboxamide], the “CDMF75 IC15” value was 400 nM and the IC50 was 1400 nM.

`CCc1nc(-c2ccc3c(c2)CC[C@H]3NC(=O)c2cn(C)nn2)no1` [Compound 616, (R)-N-(5-(5-ethyl-1,2,4-oxadiazol-3-yl)-2,3-dihydro-1H-inden-1-yl)-1-methyl-1H-1,2,3-triazole-4-carboxamide] was tested, and the “CDMF75 IC15” value was 4500 nM and the IC50 was 22900 nM.

For `CCc1nc(-c2ccc3c(c2)CC[C@H]3NC(=O)c2nnc(C)o2)no1` [Compound 618, (R)-N-(5-(5-ethyl-1,2,4-oxadiazol-3-yl)-2,3-dihydro-1H-inden-1-yl)-5-methyl-1,3,4-oxadiazole-2-carboxamide], the “CDMF75 IC15” value was 300 nM and the IC50 was 1100 nM.

`CCc1nc(-c2ccc3c(c2)CC[C@H]3NC(=O)c2nnc(C)s2)no1` [Compound 619, (R)-N-(5-(5-ethyl-1,2,4-oxadiazol-3-yl)-2,3-dihydro-1H-inden-1-yl)-5-methyl-1,3,4-thiadiazole-2-carboxamide] was tested, and the “CDMF75 IC15” value was 600 nM and the IC50 was 2500 nM.

`CCc1nc(-c2ccc3c(c2)CC[C@H]3NC(=O)c2cc(Cl)no2)no1` [Compound 620, (R)-3-chloro-N-(5-(5-ethyl-1,2,4-oxadiazol-3-yl)-2,3-dihydro-1H-inden-1-yl)isoxazole-5-carboxamide] was tested, and the “CDMF75 IC15” value was 200 nM and the IC50 was 600 nM.

For `CCc1nc(-c2ccc3c(c2)CC[C@H]3NC(=O)c2nnn(C)c2C)no1` [Compound 621, (R)-N-(5-(5-ethyl-1,2,4-oxadiazol-3-yl)-2,3-dihydro-1H-inden-1-yl)-1,5-dimethyl-1H-1,2,3-triazole-4-carboxamide], the “CDMF75 IC15” value was 1600 nM and the IC50 was 6100 nM.

For `CCc1nc(-c2ccc3c(c2)CC[C@H]3NC(=O)c2ncoc2C)no1` [Compound 622, (R)-N-(5-(5-ethyl-1,2,4-oxadiazol-3-yl)-2,3-dihydro-1H-inden-1-yl)-5-methyloxazole-4-carboxamide], the “CDMF75 IC15” value was 900 nM and the IC50 was 3600 nM.

With `CCc1nc(-c2ccc3c(c2)CC[C@H]3NC(=O)c2ccccn2)no1` [Compound 623, (R)-N-(5-(5-ethyl-1,2,4-oxadiazol-3-yl)-2,3-dihydro-1H-inden-1-yl)picolinamide] the “CDMF75 IC15” value was 400 nM and the IC50 was 1600 nM.

For `CCc1nc(-c2ccc3c(c2)CC[C@H]3NC(=O)c2cccnc2)no1` [Compound 624, (R)-N-(5-(5-ethyl-1,2,4-oxadiazol-3-yl)-2,3-dihydro-1H-inden-1-yl)nicotinamide], the “CDMF75 IC15” value was 400 nM and the IC50 was 1500 nM.

`CCc1nc(-c2ccc3c(c2)CC[C@H]3NC(=O)c2ccc(C)nc2)no1` [Compound 625, (R)-N-(5-(5-ethyl-1,2,4-oxadiazol-3-yl)-2,3-dihydro-1H-inden-1-yl)-6-methylnicotinamide] was tested, and the “CDMF75 IC15” value was 800 nM and the IC50 was 3000 nM.

With `CCc1nc(-c2ccc3c(c2)CC[C@H]3NC(=O)c2cncc(C)c2)no1` [Compound 626, (R)-N-(5-(5-ethyl-1,2,4-oxadiazol-3-yl)-2,3-dihydro-1H-inden-1-yl)-5-methylnicotinamide] the “CDMF75 IC15” value was 500 nM and the IC50 was 1600 nM.

With `CCc1nc(-c2ccc3c(c2)CC[C@H]3NC(=O)c2cnccc2C)no1` [Compound 627, (R)-N-(5-(5-ethyl-1,2,4-oxadiazol-3-yl)-2,3-dihydro-1H-inden-1-yl)-4-methylnicotinamide] the “CDMF75 IC15” value was 3500 nM and the IC50 was 15000 nM.

For `CCc1nc(-c2ccc3c(c2)CC[C@H]3NC(=O)c2ccncc2)no1` [Compound 628, (R)-N-(5-(5-ethyl-1,2,4-oxadiazol-3-yl)-2,3-dihydro-1H-inden-1-yl)isonicotinamide], the “CDMF75 IC15” value was 300 nM and the IC50 was 1000 nM.

For `CCc1nc(-c2ccc3c(c2)CC[C@H]3NC(=O)c2ccncc2C)no1` [Compound 629, (R)-N-(5-(5-ethyl-1,2,4-oxadiazol-3-yl)-2,3-dihydro-1H-inden-1-yl)-3-methylisonicotinamide], the “CDMF75 IC15” value was 2100 nM and the IC50 was 9400 nM.

With `CCc1nc(-c2ccc3c(c2)CC[C@H]3NC(=O)c2ccncn2)no1` [Compound 630, (R)-N-(5-(5-ethyl-1,2,4-oxadiazol-3-yl)-2,3-dihydro-1H-inden-1-yl)pyrimidine-4-carboxamide] the “CDMF75 IC15” value was 500 nM and the IC50 was 1800 nM.

`CCc1nc(-c2ccc3c(c2)CC[C@H]3NC(=O)c2cc(C)ncn2)no1` [Compound 631, (R)-N-(5-(5-ethyl-1,2,4-oxadiazol-3-yl)-2,3-dihydro-1H-inden-1-yl)-6-methylpyrimidine-4-carboxamide] was tested, and the “CDMF75 IC15” value was 500 nM and the IC50 was 1800 nM.

In the case of `CCc1nc(-c2ccc3c(c2)CC[C@H]3NC(=O)c2ccnnc2)no1` [Compound 632, (R)-N-(5-(5-ethyl-1,2,4-oxadiazol-3-yl)-2,3-dihydro-1H-inden-1-yl)pyridazine-4-carboxamide], the “CDMF75 IC15” value is reported as 500 nM and the IC50 is reported as 1500 nM.

`CCc1nc(-c2ccc3c(c2)CC[C@H]3NC(=O)c2nonc2C)no1` [Compound 633, (R)-N-(5-(5-ethyl-1,2,4-oxadiazol-3-yl)-2,3-dihydro-1H-inden-1-yl)-4-methyl-1,2,5-oxadiazole-3-carboxamide] was tested, and the “CDMF75 IC15” value was 200 nM and the IC50 was 800 nM.

`CCc1nc(-c2ccc3c(c2)CC[C@H]3NC(=O)c2cc(O)no2)no1` [Compound 634, (R)-N-(5-(5-ethyl-1,2,4-oxadiazol-3-yl)-2,3-dihydro-1H-inden-1-yl)-3-hydroxyisoxazole-5-carboxamide] was tested, and the “CDMF75 IC15” value was 500 nM and the IC50 was 2100 nM.

For `CCc1nc(-c2ccc3c(c2)CC[C@H]3NC(=O)c2cc(OC)no2)no1` [Compound 635, (R)-N-(5-(5-ethyl-1,2,4-oxadiazol-3-yl)-2,3-dihydro-1H-inden-1-yl)-3-methoxyisoxazole-5-carboxamide], the “CDMF75 IC15” value was 300 nM and the IC50 was 1100 nM.
